# Assay results taken from patent publication US9833497B2, “Human originated EGF domain proteins and use of the same” (CHENGDU SOURCEBIO LIMITED-LIABILITY COMPANY, priority 2013, dated 2017).
# What was measured:
# Type in all cases: cell-based
# [1] = tested on: Enterobacter cloacae; test: MIC against Gram-negative bacteria: Enterobacter cloacae
# Outline: (§1)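 Read-out is absence of bacterial growth, with MIC set at the lowest recombinant protein concentration achieving it. Bacteria, pre-grown in LB to McFarland 0.5 and resuspended, were exposed at 5×10^5 CFU/mL to two-fold diluted human EGF domain proteins in triplicate at 37° C, 175 rpm.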
# [2] = tested on: Moraxella catarrhalis; test: MIC against Gram-negative bacteria: Moraxella catarrhalis
# Outline: as §1
# [3] = tested on: Citrobacter diversus; test: MIC against Gram-negative bacteria: Citrobacter diversus
# Outline: as §1
# [4] = tested on: Klebsiella pneumonia; test: MIC against Gram-negative bacteria: Klebsiella pneumonia
# Outline: as §1
# [5] = tested on: E. coli BL21; test: MIC against Gram-negative bacteria: E. coli BL21
# Outline: as §1
# [6] = tested on: Serratia marcescens; test: MIC against Gram-negative bacteria: Serratia marcescens
# Outline: as §1
# [7] = tested on: Aeromonas hydrophila; test: MIC against Gram-negative bacteria: Aeromonas hydrophila
# Outline: as §1
# [8] = tested on: Proteus mirabilis; test: MIC against Gram-negative bacteria: Proteus mirabilis
# Outline: as §1
# [9] = tested on: Pseudomonas aeruginosa; test: MIC against Gram-negative bacteria: Pseudomonas aeruginosa
# Outline: as §1
# [10] = tested on: E. coli DH5α; test: Antibacterial activity: MIC and growth curve against E. coli DH5α in 96-well plate; details: minimal inhibitory concentration against E. coli DH5α; 96-well plate, 5×10^5 CFU/mL, 37° C., judged after 8 h
# Outline: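 Log-phase bacteria (OD600 ~0.5) resuspended in LB at 5×10^5 CFU/mL, exposed to recombinant protein at 50, 25, 12.5 μg/mL final in triplicate, 37 °C shaking at 175 rpm. OD600 read every 30 min; MIC is lowest concentration showing no growth.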
# [11] = tested on: Proteus vulgaris; test: MIC against Gram-negative bacteria: Proteus vulgaris
# Outline: as §1
# [12] = 10 h cultivation at 37° C., 5×10^5 CFU/mL, two-fold serial dilution
# [13] = 96-well plate, 5×10^5 CFU/mL, 37° C., 10 h
substance,measurement,setting,value
PRT915 (ASSPCLGGNPCYNQGTCEPTSESPFYRCLCPAKFNGLLCH; listed as Homo sapiens),MIC,"[1]; E. cloacae, 10 h cultivation at 37° C.",12.5 µg/mL
same,MIC,"[2]; M. catarrhalis, 10 h cultivation at 37° C.",50 µg/mL
same,MIC,"[3]; C. diversus, 10 h cultivation at 37° C.",25 µg/mL
same,MIC,"[4]; K. pneumonia, 10 h cultivation at 37° C.",25 µg/mL
same,MIC,"[5]; E. coli BL21, 10 h cultivation at 37° C.",25 µg/mL
same,MIC,"[6]; S. marcescens, 10 h cultivation at 37° C.",25 µg/mL
same,MIC,"[7]; A. hydrophila, 10 h cultivation at 37° C.",25 µg/mL
same,MIC,"[8]; P. mirabilis, 10 h cultivation at 37° C.",25 µg/mL
same,MIC,"[9]; P. aeruginosa, 10 h cultivation at 37° C.",50 µg/mL
same,MIC,[10],25 µg/mL
same,MIC,"[11]; P. vulgaris, 10 h cultivation at 37° C.",25 µg/mL
PRT1084 (HLVKCAEKEKTFCVNGGECFMVKDLSNPSRYLCKCQPGFTGARCT; listed as Homo sapiens),MIC E. cloacae,[1]; [12],50 µg/mL
same,MIC M. catarrhalis,[2]; [12],25 µg/mL
same,MIC C. diversus,[3]; [12],12.5 µg/mL
same,MIC K. pneumonia,[4]; [12],50 µg/mL
same,MIC E. coli BL21,[5]; [12],12.5 µg/mL
same,MIC S. marcescens,[6]; [12],12.5 µg/mL
same,MIC A. hydrophila,[7]; [12],12.5 µg/mL
same,MIC P. mirabilis,[8]; [12],12.5 µg/mL
same,MIC P. aeruginosa,[9]; [12],50 µg/mL
same,MIC,[10],50 µg/mL
same,MIC P. vulgaris,[11]; [12],25 µg/mL
PRT1093 (RKDWCESQPCQSRGRCINLWLSYQCDCHRPYEGPNCL; listed as Homo sapiens),MIC E. cloacae,[1]; [12],12.5 µg/mL
same,MIC M. catarrhalis,[2]; [12],12.5 µg/mL
same,MIC C. diversus,[3]; [12],25 µg/mL
same,MIC K. pneumonia,[4]; [12],50 µg/mL
same,MIC E. coli BL21,[5]; [12],50 µg/mL
same,MIC S. marcescens,[6]; [12],12.5 µg/mL
same,MIC A. hydrophila,[7]; [12],50 µg/mL
same,MIC P. mirabilis,[8]; [12],25 µg/mL
same,MIC P. aeruginosa,[9]; [12],12.5 µg/mL
same,MIC,[10],12.5 µg/mL
same,MIC P. vulgaris,[11]; [12],50 µg/mL
PRT157 (VADPCASNPCHHGNCSSSSSSSSDGYLCICNEGYEGPNCE; listed as Homo sapiens),MIC (μg/mL) E. cloacae,"[1]; E. cloacae, 10 h cultivation at 37° C., 5×10^5 CFU/mL",25 µg/mL
same,MIC (μg/mL) M. catarrhalis,"[2]; M. catarrhalis, 10 h cultivation at 37° C., 5×10^5 CFU/mL",12.5 µg/mL
same,MIC (μg/mL) C. diversus,"[3]; C. diversus, 10 h cultivation at 37° C., 5×10^5 CFU/mL",12.5 µg/mL
same,MIC (μg/mL) K. pneumonia,"[4]; K. pneumonia, 10 h cultivation at 37° C., 5×10^5 CFU/mL",12.5 µg/mL
same,MIC (μg/mL) E. coli BL21,"[5]; E. coli BL21, 10 h cultivation at 37° C., 5×10^5 CFU/mL",50 µg/mL
same,MIC (μg/mL) S. marcescens,"[6]; S. marcescens, 10 h cultivation at 37° C., 5×10^5 CFU/mL",12.5 µg/mL
same,MIC (μg/mL) A. hydrophila,"[7]; A. hydrophila, 10 h cultivation at 37° C., 5×10^5 CFU/mL",12.5 µg/mL
same,MIC (μg/mL) P. mirabilis,"[8]; P. mirabilis, 10 h cultivation at 37° C., 5×10^5 CFU/mL",12.5 µg/mL
same,MIC (μg/mL) P. aeruginosa,"[9]; P. aeruginosa, 10 h cultivation at 37° C., 5×10^5 CFU/mL",25 µg/mL
same,MIC,[10],12.5 µg/mL
same,MIC (μg/mL) P. vulgaris,"[11]; P. vulgaris, 10 h cultivation at 37° C., 5×10^5 CFU/mL",12.5 µg/mL
PRT1049 (WGENCAQTCQCHHGGTCHPQDGSCICPLGWTGHHCL; listed as Homo sapiens),MIC E. cloacae,[1]; [12],12.5 µg/mL
same,MIC M. catarrhalis,[2]; [12],12.5 µg/mL
same,MIC C. diversus,[3]; [12],12.5 µg/mL
same,MIC K. pneumonia,[4]; [12],25 µg/mL
same,MIC E. coli BL21,[5]; [12],25 µg/mL
same,MIC S. marcescens,[6]; [12],50 µg/mL
same,MIC A. hydrophila,[7]; [12],12.5 µg/mL
same,MIC P. mirabilis,[8]; [12],50 µg/mL
same,MIC P. aeruginosa,[9]; [12],12.5 µg/mL
same,MIC,[10],12.5 µg/mL
same,MIC P. vulgaris,[11]; [12],12.5 µg/mL
PRT647 (DVDECLRPDVCGEGHCVNTVGAFRCEYCDSGYRMTQRGRCE; listed as Homo sapiens),MIC E. cloacae,[1]; [13],12.5 µg/mL
same,MIC M. catarrhalis,[2]; [13],50 µg/mL
same,MIC C. diversus,[3]; [13],12.5 µg/mL
same,MIC K. pneumonia,[4]; [13],50 µg/mL
same,MIC E. coli BL21,[5]; [13],12.5 µg/mL
same,MIC S. marcescens,[6]; [13],25 µg/mL
same,MIC A. hydrophila,[7]; [13],50 µg/mL
same,MIC P. mirabilis,[8]; [13],12.5 µg/mL
same,MIC P. aeruginosa,[9]; [13],25 µg/mL
same,MIC,[10],25 µg/mL
same,MIC P. vulgaris,[11]; [13],50 µg/mL
PRT1266 (CMNKDHGCSHICKEAPRGSVACECRPGFELAKNQRDC; listed as Homo sapiens),MIC against E. cloacae,"[1]; Enterobacter cloacae, 96-well plate, 5×10^5 CFU/mL, 37° C., 10 h",25 µg/mL
same,MIC against M. catarrhalis,"[2]; Moraxella catarrhalis, 96-well plate, 5×10^5 CFU/mL, 37° C., 10 h",25 µg/mL
same,MIC against C. diversus,"[3]; Citrobacter diversus, 96-well plate, 5×10^5 CFU/mL, 37° C., 10 h",12.5 µg/mL
same,MIC against K. pneumonia,"[4]; Klebsiella pneumonia, 96-well plate, 5×10^5 CFU/mL, 37° C., 10 h",50 µg/mL
same,MIC against E. coli BL21,"[5]; E. coli BL21, 96-well plate, 5×10^5 CFU/mL, 37° C., 10 h",12.5 µg/mL
same,MIC against S. marcescens,"[6]; Serratia marcescens, 96-well plate, 5×10^5 CFU/mL, 37° C., 10 h",50 µg/mL
same,MIC against A. hydrophila,"[7]; Aeromonas hydrophila, 96-well plate, 5×10^5 CFU/mL, 37° C., 10 h",25 µg/mL
same,MIC against P. mirabilis,"[8]; Proteus mirabilis, 96-well plate, 5×10^5 CFU/mL, 37° C., 10 h",50 µg/mL
same,MIC against P. aeruginosa,"[9]; Pseudomonas aeruginosa, 96-well plate, 5×10^5 CFU/mL, 37° C., 10 h",25 µg/mL
same,MIC,[10],50 µg/mL
same,MIC against P. vulgaris,"[11]; Proteus vulgaris, 96-well plate, 5×10^5 CFU/mL, 37° C., 10 h",12.5 µg/mL
